Data: ChEMBL document CHEMBL5360646, “Optimization of M3 Antagonist-PDE4 Inhibitor (MAPI) Dual Pharmacology Molecules for the Treatment of COPD” (J Med Chem, 2023)
≈ marks a conversion by molar mass, not a printed value. Calls of active or inactive are those of the source. No cut-off for these calls is given here.

Columns and labels:
[1] = target: Dual specificity calcium/calmodulin-dependent 3',5'-cyclic nucleotide phosphodiesterase 1A (Homo sapiens) (UniProt P54750); assay: Inhibition of human recombinant PDE1A3 expressed in baculovirus expression system using cAMP as substrate at 1 uM by radiometric assay
[2] = Toxicity in pilocarpine hydrochloride induced salivation Sprague-Dawley rat model assessed as inhibition of salivary secretion at 3 mM,INH for 10 mins; conditions: in vivo, inhaled_or_intranasal, 10 min, 3000 µM
Rattus norvegicus [3] = assay: Anti-inflammatory activity against OVA-sensitized Brown-Norway rat airway inflammation model assessed as inhibition of OVA-induced eosinophil influx at 100 nmol/kg,IT(Intratracheal) pretreated 24 hrs prior to OVA challenge and measured after 48 hrs by automated cell counter analysis; assay type: functional; set-up: scale not given: the % may be the effect or the level left; conditions: time 72 hrs
[4] = Half life in Sprague-Dawley rat lung at 10 ug,IT(Intratracheal) by HPLC-MS/MS analysis; assay type: ADME, tissue-based; conditions: inhaled or intranasal, dose 10 µg
[5] = Solubility of compound simulated lung fluid at 1 mg/ml and measured at 0 hr by UPLC-MS analysis; assay type: physicochemical
[6] = AUClast in Sprague-Dawley rat plasma at 10 ug,IT(Intratracheal) by HPLC-MS/MS analysis; assay type: ADME, cell-free; set-up: dose 10 µg, route it(Intratracheal); conditions: inhaled or intranasal
Rattus norvegicus [7] = assay: Anti-inflammatory activity against OVA-sensitized Brown-Norway rat airway inflammation model assessed as inhibition of OVA-induced eosinophil influx in BALF at 30 nmol/kg, IT(Intratracheal) pretreated 24 hrs prior to OVA challenge and measured after 48 hrs by automated cell counter analysis; assay type: functional; set-up: scale not given: the % may be the effect or the level left
[8] = Toxicity in ferret assessed as emetic response at 10 nmol/kg,po and measured for 4 hrs by behavioral analysis; set-up: species or system Mustela putorius furo; conditions: in vivo
Rattus norvegicus [9] = assay: Anti-inflammatory activity against OVA-sensitized Brown-Norway rat airway inflammation model assessed as inhibition of OVA-induced eosinophil influx administered IT(Intratracheal) pretreated 24 hrs prior to OVA challenge and measured after 48 hrs by automated cell counter analysis; assay type: functional; conditions: time 72 hrs
Rattus norvegicus [10] = assay: Anti-bronchospastic activity in carbachol-induced bronchospasm Sprague-Dawley rat model assessed as inhibition of carbachol-induced bronchoconstriction administered IT(Intratracheal) for 1 hr prior to carbachol challenge; assay type: functional; conditions: Rattus norvegicus, Sprague-Dawley, read-out: ED50
[11] = target: cGMP-specific 3',5'-cyclic phosphodiesterase (Homo sapiens) (UniProt O76074); assay: Inhibition of human recombinant PDE5 catalytic domain expressed in baculovirus expression system using […] as substrate at 1 uM by radiometric assay
Rattus norvegicus [12] = assay: Anti-inflammatory activity against OVA-sensitized Brown-Norway rat airway inflammation model assessed as inhibition of OVA-induced eosinophil influx administered IT(Intratracheal) 2 hrs prior to OVA challenge; assay type: functional
[13] = target: T1, 3',5'-cyclic-AMP phosphodiesterase 4B (Homo sapiens, UniProt Q07343); assay: Inhibition of human recombinant PDE4B2 expressed in baculovirus expression system using cAMP as substrate incubated for 2 hrs by HTRF assay
[14] = target: 3',5'-cyclic-AMP phosphodiesterase 4D (Homo sapiens, UniProt Q08499); assay: Inhibition of human recombinant PDE4D3 expressed in baculovirus expression system using cAMP as substrate by radiometric assay
Rattus norvegicus [15] = assay: Anti-inflammatory activity against OVA-sensitized Brown-Norway rat airway inflammation model assessed as inhibition of OVA-induced eosinophil influx at 10 nmol/kg,IT(Intratracheal) pretreated 24 hrs prior to OVA challenge and measured after 48 hrs by automated cell counter analysis; assay type: functional; set-up: scale not given: the % may be the effect or the level left
Rattus norvegicus [16] = assay: Anti-bronchospastic activity in carbachol-induced bronchospasm Sprague-Dawley rat model assessed as inhibition of carbachol-induced bronchoconstriction at 30 nmol/kg, IT(Intratracheal) administered 16 hr prior to carbachol challenge; assay type: functional; set-up: scale not given: the % may be the effect or the level left
[17] = target: 3',5'-cyclic-AMP phosphodiesterase 4A (Homo sapiens, UniProt P27815); assay: Inhibition of human recombinant PDE4A4 expressed in baculovirus expression system using cAMP as substrate by radiometric assay
[18] = Cmax in Sprague-Dawley rat plasma at 10 ug,IT(Intratracheal) by HPLC-MS/MS analysis; assay type: ADME, cell-free; set-up: dose 10 µg, route it(Intratracheal); conditions: inhaled or intranasal
[19] = Toxicity in ferret assessed as emetic response at 10 nmol/kg, IT(Intratracheal) and measured for 4 hrs by behavioral analysis; set-up: species or system Mustela putorius furo; conditions: in vivo, inhaled_or_intranasal
[20] = target: cGMP-inhibited 3',5'-cyclic phosphodiesterase 3A (Homo sapiens) (UniProt Q14432); assay: Inhibition of human recombinant PDE3A expressed in baculovirus expression system using cAMP as substrate at 1 uM by radiometric assay
[21] = Toxicity in ferret assessed as appearance of nausea-like behavior at 10 nmol/kg, IT(Intratracheal) and measured for 4 hrs by behavioral analysis; set-up: species or system Mustela putorius furo; conditions: in vivo, inhaled_or_intranasal
[22] = Toxicity in pilocarpine hydrochloride induced salivation Sprague-Dawley rat model assessed as inhibition of salivary secretion at 1 mM,INH for 10 mins; conditions: in vivo, inhaled_or_intranasal, 1000 µM
Rattus norvegicus [23] = assay: Anti-bronchospastic activity in carbachol-induced bronchospasm Sprague-Dawley rat model assessed as inhibition of carbachol-induced bronchoconstriction at 30 nmol/kg, IT(Intratracheal) administered 1 hr prior to carbachol challenge; assay type: functional; set-up: scale not given: the % may be the effect or the level left
[24] = Cmax in Sprague-Dawley rat lung at 10 ug,IT(Intratracheal) by HPLC-MS/MS analysis; assay type: ADME, tissue-based; set-up: dose 10 µg, route it(Intratracheal); conditions: inhaled or intranasal
[25] = Toxicity in ferret assessed as appearance of nausea-like behavior at 10 nmol/kg,po and measured for 4 hrs by behavioral analysis; set-up: species or system Mustela putorius furo; conditions: in vivo
Rattus norvegicus [26] = assay: Anti-inflammatory activity against OVA-sensitized Brown-Norway rat airway inflammation model assessed as inhibition of OVA-induced eosinophil influx at 1 nmol/kg,IT(Intratracheal) pretreated 2 hrs prior to OVA challenge by automated cell counter analysis; assay type: functional; set-up: scale not given: the % may be the effect or the level left
[27] = target: T1, 3',5'-cyclic-AMP phosphodiesterase 4B; assay: Inhibition of human recombinant PDE4B2 expressed in baculovirus expression system using cAMP as substrate by radiometric assay
[28] = target: 3',5'-cyclic-AMP phosphodiesterase 4C (Homo sapiens, UniProt Q08493); assay: Inhibition of human recombinant PDE4C2 expressed in baculovirus expression system using cAMP as substrate by radiometric assay
Trachea = assay: Bronchoconstriction activity in Sprague-Dawley rat trachea assessed as inhibition of carbachol-induced tracheal contraction; assay type: functional, tissue-based; conditions: Rattus norvegicus, Sprague-Dawley, Trachea
Rattus norvegicus [29] = assay: Anti-inflammatory activity against OVA-sensitized Brown-Norway rat airway inflammation model assessed as inhibition of OVA-induced eosinophil influx at 10 nmol/kg,IT(Intratracheal) pretreated 2 hrs prior to OVA challenge by automated cell counter analysis; assay type: functional; set-up: scale not given: the % may be the effect or the level left
[30] = Solubility of compound simulated lung fluid at 1 mg/ml and measured at 2 hr by UPLC-MS analysis; assay type: physicochemical
[31] = Antiinflammatory activity against LPS-stimulated human PBMC cells assessed reduction in TNFalpha level incubated for 18 hrs by ELISA analysis; assay type: functional, cell-based; conditions: Homo sapiens, PBMC, 18 h
[32] = Ratio of ED50 for Anti-inflammatory activity against OVA-sensitized Brown-Norway rat airway inflammation model to ED50 for Anti-bronchospastic activity in carbachol-induced bronchospasm Sprague-Dawley rat model; assay type: functional
[33] = target: Muscarinic acetylcholine receptor M3 (Homo sapiens, UniProt P20309); assay: Displacement of [3H]N-methylscopolamine chloride from human muscarinic M3 receptor incubated for 2 hrs by radioligand binding assay
[34] = target: T2, Muscarinic acetylcholine receptor M2 (Homo sapiens, UniProt P08172); assay: Displacement of [3H]N-methylscopolamine chloride from human muscarinic M2 receptor incubated for 2 hrs by radioligand binding assay
T2 sequence (P08172 whole entry): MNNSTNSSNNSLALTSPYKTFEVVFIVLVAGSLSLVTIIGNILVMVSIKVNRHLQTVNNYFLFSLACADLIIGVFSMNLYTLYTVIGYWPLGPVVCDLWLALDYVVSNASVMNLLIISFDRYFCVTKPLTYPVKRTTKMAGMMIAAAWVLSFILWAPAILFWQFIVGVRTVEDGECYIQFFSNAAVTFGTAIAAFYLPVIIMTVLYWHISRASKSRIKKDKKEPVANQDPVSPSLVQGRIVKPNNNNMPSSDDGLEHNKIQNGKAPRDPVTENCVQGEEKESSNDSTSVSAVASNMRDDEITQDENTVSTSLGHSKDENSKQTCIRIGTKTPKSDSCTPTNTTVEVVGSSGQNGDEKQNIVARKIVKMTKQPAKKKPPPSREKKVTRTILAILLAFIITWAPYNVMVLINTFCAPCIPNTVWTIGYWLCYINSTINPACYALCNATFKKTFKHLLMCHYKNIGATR

Rattus norvegicus [35] = assay: Anti-inflammatory activity against OVA-sensitized Brown-Norway rat airway inflammation model assessed as inhibition of OVA-induced eosinophil influx at 100 nmol/kg,IT(Intratracheal) pretreated 2 hrs prior to OVA challenge by automated cell counter analysis; assay type: functional; set-up: scale not given: the % may be the effect or the level left
Rattus norvegicus [36] = assay: Anti-inflammatory activity against OVA-sensitized Brown-Norway rat airway inflammation model assessed as inhibition of OVA-induced eosinophil influx at 1000 nmol/kg,IT(Intratracheal) pretreated 24 hrs prior to OVA challenge and measured after 48 hrs by automated cell counter analysis; assay type: functional; set-up: scale not given: the % may be the effect or the level left; conditions: time 72 hrs
[37] = AUC (0 to infinity) in Sprague-Dawley rat lung at 10 ug,IT(Intratracheal) by HPLC-MS/MS analysis; assay type: ADME, tissue-based; set-up: dose 10 µg, route it(Intratracheal); conditions: in vivo, inhaled_or_intranasal
[38] = Metabolic stability in human plasma assessed as half life at 5 uM and measured upto 180 mins by HPLC-MS/MS analysis; assay type: ADME, cell-free
[39] = Metabolic stability in rat plasma assessed as half life at 5 uM and measured upto 180 mins by HPLC-MS/MS analysis; assay type: ADME, cell-free
[40] = Metabolic stability in human lung S9 fraction assessed as half life at 1 uM and measured upto 60 mins in presence of NADPH by LC-MS/MS analysis; assay type: ADME, subcellular; conditions: lung S9 fraction
[41] = Metabolic stability in human liver microsomes assessed as intrinsic clerance at 1 uM and measured upto 60 mins by HPLC-MS/MS analysis; assay type: ADME, Microsome; conditions: liver microsomes, read-out: CLH
[42] = Metabolic stability in rat liver microsomes assessed as intrinsic clerance at 1 uM and measured upto 60 mins by HPLC-MS/MS analysis; assay type: ADME, Microsome; conditions: liver microsomes, read-out: CLH
Rattus norvegicus [43] = assay: Anti-bronchospastic activity in carbachol-induced bronchospasm Sprague-Dawley rat model assessed as inhibition of carbachol-induced bronchoconstriction at 3 nmol/kg, IT(Intratracheal) administered 16 hr prior to carbachol challenge; assay type: functional; set-up: scale not given: the % may be the effect or the level left
Rattus norvegicus [44] = assay: Anti-bronchospastic activity in carbachol-induced bronchospasm Sprague-Dawley rat model assessed as inhibition of carbachol-induced bronchoconstriction at 3 nmol/kg, IT(Intratracheal) administered 1 hr prior to carbachol challenge; assay type: functional; set-up: scale not given: the % may be the effect or the level left
[45] = Metabolic stability in rat lung S9 fraction assessed as half life at 1 uM and measured upto 60 mins in presence of NADPH by LC-MS/MS analysis; assay type: ADME, subcellular; conditions: lung S9 fraction
[46] = Antiinflammatory activity against LPS-stimulated rat PBMC cells assessed reduction in TNFalpha level incubated for 18 hrs by ELISA analysis; assay type: functional, cell-based

T1 sequence (Q07343 whole entry): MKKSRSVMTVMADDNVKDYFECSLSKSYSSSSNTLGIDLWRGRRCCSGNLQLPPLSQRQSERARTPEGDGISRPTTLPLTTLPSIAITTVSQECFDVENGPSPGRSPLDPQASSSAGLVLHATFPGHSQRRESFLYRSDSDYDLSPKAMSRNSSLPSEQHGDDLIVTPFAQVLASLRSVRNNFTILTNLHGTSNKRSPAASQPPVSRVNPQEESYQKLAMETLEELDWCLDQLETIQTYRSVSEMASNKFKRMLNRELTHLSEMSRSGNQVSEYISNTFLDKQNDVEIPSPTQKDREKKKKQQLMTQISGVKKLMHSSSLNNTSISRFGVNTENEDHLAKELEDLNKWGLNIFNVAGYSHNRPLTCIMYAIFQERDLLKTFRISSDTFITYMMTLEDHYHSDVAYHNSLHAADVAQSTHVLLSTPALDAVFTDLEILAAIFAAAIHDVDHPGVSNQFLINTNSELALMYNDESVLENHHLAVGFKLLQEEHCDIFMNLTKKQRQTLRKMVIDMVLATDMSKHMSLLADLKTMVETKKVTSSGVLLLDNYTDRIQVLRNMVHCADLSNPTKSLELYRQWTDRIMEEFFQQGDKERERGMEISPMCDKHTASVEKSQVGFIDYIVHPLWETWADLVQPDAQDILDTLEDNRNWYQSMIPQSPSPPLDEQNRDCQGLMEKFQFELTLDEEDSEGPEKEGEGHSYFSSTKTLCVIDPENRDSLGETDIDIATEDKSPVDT
Chain of Muscarinic acetylcholine receptor M3 (P20309 whole entry): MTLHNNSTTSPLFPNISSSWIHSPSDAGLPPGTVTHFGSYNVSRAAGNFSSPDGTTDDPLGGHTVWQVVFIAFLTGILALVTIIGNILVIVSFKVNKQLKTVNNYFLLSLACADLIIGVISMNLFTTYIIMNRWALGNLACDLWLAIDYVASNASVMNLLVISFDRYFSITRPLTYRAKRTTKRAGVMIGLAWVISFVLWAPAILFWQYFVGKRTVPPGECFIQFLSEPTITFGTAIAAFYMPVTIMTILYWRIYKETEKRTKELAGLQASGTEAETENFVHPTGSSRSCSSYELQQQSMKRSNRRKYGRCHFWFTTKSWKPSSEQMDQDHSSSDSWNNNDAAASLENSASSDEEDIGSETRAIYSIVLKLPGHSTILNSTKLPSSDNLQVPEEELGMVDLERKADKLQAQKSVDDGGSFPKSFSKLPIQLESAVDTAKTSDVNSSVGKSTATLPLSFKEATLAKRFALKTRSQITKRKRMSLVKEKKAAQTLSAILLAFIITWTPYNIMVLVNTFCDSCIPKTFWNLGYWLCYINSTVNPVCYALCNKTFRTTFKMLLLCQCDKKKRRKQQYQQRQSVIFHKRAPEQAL
Chain of 3',5'-cyclic-AMP phosphodiesterase 4A (P27815 whole entry): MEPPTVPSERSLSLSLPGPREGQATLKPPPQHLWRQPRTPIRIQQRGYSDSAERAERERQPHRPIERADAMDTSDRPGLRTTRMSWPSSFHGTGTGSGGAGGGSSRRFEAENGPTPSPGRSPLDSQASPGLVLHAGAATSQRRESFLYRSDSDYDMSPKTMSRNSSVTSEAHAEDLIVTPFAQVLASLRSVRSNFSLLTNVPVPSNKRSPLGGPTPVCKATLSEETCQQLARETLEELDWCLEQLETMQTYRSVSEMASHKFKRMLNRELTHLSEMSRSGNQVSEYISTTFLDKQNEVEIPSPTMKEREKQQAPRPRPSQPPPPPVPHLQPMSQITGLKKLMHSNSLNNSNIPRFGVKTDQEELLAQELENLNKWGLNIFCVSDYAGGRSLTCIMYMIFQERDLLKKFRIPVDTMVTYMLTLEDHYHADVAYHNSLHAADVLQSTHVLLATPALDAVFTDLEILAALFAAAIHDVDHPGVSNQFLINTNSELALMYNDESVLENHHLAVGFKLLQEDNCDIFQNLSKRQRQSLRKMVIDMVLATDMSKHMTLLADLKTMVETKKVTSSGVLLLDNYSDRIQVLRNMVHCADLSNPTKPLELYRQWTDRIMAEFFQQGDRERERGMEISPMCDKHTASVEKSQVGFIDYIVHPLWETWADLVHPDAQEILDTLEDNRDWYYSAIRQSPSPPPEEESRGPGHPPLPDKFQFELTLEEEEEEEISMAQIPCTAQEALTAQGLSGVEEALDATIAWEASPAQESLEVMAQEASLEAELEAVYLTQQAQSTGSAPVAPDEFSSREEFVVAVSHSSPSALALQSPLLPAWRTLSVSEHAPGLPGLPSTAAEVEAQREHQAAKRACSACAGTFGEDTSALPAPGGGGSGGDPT
Chain of 3',5'-cyclic-AMP phosphodiesterase 4D (Q08499 whole entry): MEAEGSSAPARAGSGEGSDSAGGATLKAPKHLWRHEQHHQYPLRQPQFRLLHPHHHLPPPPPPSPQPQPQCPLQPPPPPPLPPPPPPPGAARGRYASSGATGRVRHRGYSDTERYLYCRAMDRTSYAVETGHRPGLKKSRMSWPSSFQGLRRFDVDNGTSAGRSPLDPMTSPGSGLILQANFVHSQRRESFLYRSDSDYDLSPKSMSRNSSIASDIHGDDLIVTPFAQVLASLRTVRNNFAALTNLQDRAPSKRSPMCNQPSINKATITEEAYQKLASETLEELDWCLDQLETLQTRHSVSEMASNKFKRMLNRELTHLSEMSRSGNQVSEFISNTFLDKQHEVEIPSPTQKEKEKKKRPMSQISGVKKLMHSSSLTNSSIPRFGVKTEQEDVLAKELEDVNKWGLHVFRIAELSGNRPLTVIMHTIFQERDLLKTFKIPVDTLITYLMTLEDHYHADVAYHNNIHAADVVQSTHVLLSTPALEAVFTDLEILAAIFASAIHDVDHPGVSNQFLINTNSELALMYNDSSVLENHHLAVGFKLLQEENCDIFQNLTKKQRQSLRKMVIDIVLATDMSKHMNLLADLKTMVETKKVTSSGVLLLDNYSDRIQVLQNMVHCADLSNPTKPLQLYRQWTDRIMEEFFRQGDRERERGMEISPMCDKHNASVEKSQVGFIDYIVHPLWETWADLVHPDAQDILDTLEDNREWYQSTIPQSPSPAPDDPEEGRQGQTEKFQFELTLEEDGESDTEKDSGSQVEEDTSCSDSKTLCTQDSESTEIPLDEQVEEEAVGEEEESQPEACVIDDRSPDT
Chain of cGMP-inhibited 3',5'-cyclic phosphodiesterase 3A (Homo sapiens) (Q14432 whole entry): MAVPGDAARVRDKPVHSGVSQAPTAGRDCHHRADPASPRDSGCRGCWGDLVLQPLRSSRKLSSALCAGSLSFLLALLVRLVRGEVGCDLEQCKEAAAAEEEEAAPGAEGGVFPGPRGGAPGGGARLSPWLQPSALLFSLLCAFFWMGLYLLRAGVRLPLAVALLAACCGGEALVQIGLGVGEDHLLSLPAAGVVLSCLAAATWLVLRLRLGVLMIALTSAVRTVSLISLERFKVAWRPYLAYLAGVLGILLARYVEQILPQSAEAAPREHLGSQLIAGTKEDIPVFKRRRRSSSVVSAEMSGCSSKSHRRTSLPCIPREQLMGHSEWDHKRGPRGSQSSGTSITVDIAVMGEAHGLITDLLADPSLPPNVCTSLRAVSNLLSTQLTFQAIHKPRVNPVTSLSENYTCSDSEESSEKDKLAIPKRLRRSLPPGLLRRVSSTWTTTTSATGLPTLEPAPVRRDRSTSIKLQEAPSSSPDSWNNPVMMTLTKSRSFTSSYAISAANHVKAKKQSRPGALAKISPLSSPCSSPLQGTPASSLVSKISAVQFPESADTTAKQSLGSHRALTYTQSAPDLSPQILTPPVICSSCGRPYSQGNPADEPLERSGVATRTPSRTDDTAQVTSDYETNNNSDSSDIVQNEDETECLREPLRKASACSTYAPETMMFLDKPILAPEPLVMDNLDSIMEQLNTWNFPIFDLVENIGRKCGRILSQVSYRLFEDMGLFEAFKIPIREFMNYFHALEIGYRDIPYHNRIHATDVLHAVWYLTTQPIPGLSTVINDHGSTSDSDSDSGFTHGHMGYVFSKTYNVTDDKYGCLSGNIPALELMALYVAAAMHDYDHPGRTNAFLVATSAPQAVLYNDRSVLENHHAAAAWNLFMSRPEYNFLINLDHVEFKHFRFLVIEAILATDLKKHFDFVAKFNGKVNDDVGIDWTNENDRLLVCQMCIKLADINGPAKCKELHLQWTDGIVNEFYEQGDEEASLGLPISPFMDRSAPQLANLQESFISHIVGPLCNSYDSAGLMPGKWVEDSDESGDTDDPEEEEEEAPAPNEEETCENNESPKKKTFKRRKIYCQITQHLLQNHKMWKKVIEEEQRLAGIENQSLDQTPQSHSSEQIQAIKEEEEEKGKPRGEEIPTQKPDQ
Chain of Dual specificity calcium/calmodulin-dependent 3',5'-cyclic nucleotide phosphodiesterase 1A (Homo sapiens) (P54750 whole entry): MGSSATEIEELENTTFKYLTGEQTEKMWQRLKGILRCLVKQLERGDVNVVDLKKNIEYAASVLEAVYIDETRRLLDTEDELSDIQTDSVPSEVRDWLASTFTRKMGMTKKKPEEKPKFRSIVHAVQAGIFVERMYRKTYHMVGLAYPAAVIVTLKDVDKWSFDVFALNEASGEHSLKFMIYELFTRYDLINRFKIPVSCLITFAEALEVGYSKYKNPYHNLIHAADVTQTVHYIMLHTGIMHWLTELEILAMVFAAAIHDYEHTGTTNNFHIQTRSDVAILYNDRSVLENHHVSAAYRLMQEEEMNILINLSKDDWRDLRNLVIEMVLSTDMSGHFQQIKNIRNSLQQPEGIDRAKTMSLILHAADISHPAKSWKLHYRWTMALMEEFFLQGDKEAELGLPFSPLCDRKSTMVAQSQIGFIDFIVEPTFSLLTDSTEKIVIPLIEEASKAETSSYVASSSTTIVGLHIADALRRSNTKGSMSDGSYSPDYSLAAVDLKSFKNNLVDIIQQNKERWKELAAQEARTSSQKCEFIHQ

CCOc1cc([C@H](Cc2c(Cl)c[n+]([O-])cc2Cl)OC(=O)c2ccc(CN[C@@](CO)(C(=O)O[C@H]3CN4CCC3CC4)c3ccccc3)s2)ccc1OC
inhibition [1]: inactive | Activity [2]: Non-Toxic | Activity (Rattus norvegicus [3]): 72% | half-life [4]: 258 min | solubility at 0 h [5]: 3.3 µg/mL (≈ 4.28 µM) | AUC(0-t) [6]: 3.7 ng·h/mL | Activity (Rattus norvegicus [7]): 63% | Activity [8]: Non-Toxic | ED50 (Rattus norvegicus [9]): 0.016 µmol/kg | ED50 (Rattus norvegicus [10]): 0.007 µmol/kg | inhibition [11]: inactive | ED50 (Rattus norvegicus [12]): 0.007 µmol/kg | IC50 [13]: 1 nM | IC50 [14]: 0.398 nM | Activity (Rattus norvegicus [15]): 45% | Activity (Rattus norvegicus [16]): 83% | IC50 [17]: 0.0316 nM | Cmax [18]: 2 ng/mL | Activity [19]: Non-Toxic | inhibition [20]: inactive | Activity [21]: Non-Toxic | Activity [22]: Non-Toxic | Activity (Rattus norvegicus [23]): 80% | Cmax [24]: 6270 ng/g | Activity [25]: Non-Toxic | Activity (Rattus norvegicus [26]): 28% | IC50 [27]: 0.0398 nM | IC50 [28]: 0.0251 nM | IC50 (Trachea): 12.6 nM | Activity (Rattus norvegicus [29]): 60% | solubility at 2 h [30]: 1.6 µg/mL (≈ 2.08 µM) | IC50 [31]: 0.316 nM | Ratio ED50 [32]: 1 | Ki [33]: 0.631 nM | Ki [34]: 10 nM | Activity (Rattus norvegicus [35]): 92% | Activity (Rattus norvegicus [36]): >100% | AUC [37]: 9242 ng·h/g

COc1ccc([C@H](Cc2c(Cl)c[n+]([O-])cc2Cl)OC(=O)c2ccc(CN[C@@H](C(=O)O[C@H]3CN4CCC3CC4)c3ccccc3)s2)cc1OC
half-life at 5 µM [38]: 11 min | half-life at 5 µM [39]: 9 min | ED50 (Rattus norvegicus [10]): 0.0007 µmol/kg | ED50 (Rattus norvegicus [12]): 0.03 µmol/kg | IC50 [13]: 1.58 nM | half-life at 1 µM [40]: 69 min | microsomal CLint at 1 µM [41]: 213 µL/min/mg | microsomal CLint at 1 µM [42]: 126 µL/min/mg | Activity (Rattus norvegicus [43]): 67% | IC50 (Trachea): 1 nM | Activity (Rattus norvegicus [44]): 74% | IC50 [31]: 1.58 nM | Ratio ED50 [32]: 42 | half-life at 1 µM [45]: 15 min | Ki [33]: 0.0631 nM | IC50 [46]: 2 nM
